The nature of this data set: in vitro. The settings on record: rat, plasma.

With `CC(C)(C)CNC(=O)C[C@H](NC(=O)N1CCC(NC(=O)c2ccc(F)cc2)CC1)C(=O)N[C@@H](CCc1ccccc1)C(=O)NCc1ccccc1Cl`, the half-life (commonly how long it takes for the measured level to halve) at 2 µM was 1.53 h.
The same measure for `CC(C)(C)CNC(=O)C[C@H](NC(=O)[C@H](CC(=O)NCC(C)(C)C)NC(=O)N1CCC(C(=O)Nc2cccnc2)CC1)C(=O)NCc1ccccc1Cl`: 1.2 h.

Source of the values: ChEMBL document CHEMBL4673312, “Optimization of piperidine constructed peptidyl derivatives as proteasome inhibitors” (Bioorg Med Chem, 2021).
